From article PMC11382572, “Structural and kinetic insights into the stereospecific oxidation of R-2,3-dihydroxypropanesulfonate by DHPS-3-dehydrogenase from Cupriavidus pinatubonensis” (Chemical Science, 2024)
pIC50: −log10 of the molar value.

Molecular target: T1, DHPS-3-dehydrogenase (CpHpsN) (Cupriavidus pinatubonensis, UniProt Q46N53)
T1 construct: gene hpsN
Experiment: X-ray crystal structure, […] Å, co-crystallization; enzyme inhibition assay
Assay type: biochemical

T1 sequence (Q46N53 whole entry): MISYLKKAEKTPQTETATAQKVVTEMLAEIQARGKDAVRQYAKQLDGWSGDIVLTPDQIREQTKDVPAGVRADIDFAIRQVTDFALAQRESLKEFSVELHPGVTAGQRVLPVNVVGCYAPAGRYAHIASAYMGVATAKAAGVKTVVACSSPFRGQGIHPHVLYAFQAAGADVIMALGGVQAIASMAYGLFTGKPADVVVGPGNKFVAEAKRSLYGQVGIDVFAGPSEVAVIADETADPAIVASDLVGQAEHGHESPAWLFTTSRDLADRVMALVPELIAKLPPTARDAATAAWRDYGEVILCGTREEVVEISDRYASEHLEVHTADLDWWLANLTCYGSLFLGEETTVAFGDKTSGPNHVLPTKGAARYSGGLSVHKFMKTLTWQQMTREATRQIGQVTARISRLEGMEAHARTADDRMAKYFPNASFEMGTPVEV

pIC50: 2.62
SMILES: N[C@@H](CS(=O)(=O)O)C(=O)O [L-cysteate]
